How the values were obtained:
hJAK2 = hJAK2 (Homo sapiens (Human), UniProt O60674); test: hJAK2 LANCE TR-FRET enzymatic assay; type: biochemical; details: read-out: JAK2 IC50
TBK1 = TBK1 (Homo sapiens (Human), UniProt Q9UHD2); test: TBK1 TR-FRET enzymatic assay;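 also: phosphorylation of a biotinylated Ser/Thr peptide by purified full-length recombinant TBK1, read by TR-FRET after 240 min at 25 °C, IC50 is the geometric mean of at least four runs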
IKKε = IKKε (Homo sapiens (Human), UniProt Q14164); test: IKKε TR-FRET enzymatic assay; type: biochemical; details: read-out: IKKe IC50
Sequence of IKKε (Q14164 whole entry): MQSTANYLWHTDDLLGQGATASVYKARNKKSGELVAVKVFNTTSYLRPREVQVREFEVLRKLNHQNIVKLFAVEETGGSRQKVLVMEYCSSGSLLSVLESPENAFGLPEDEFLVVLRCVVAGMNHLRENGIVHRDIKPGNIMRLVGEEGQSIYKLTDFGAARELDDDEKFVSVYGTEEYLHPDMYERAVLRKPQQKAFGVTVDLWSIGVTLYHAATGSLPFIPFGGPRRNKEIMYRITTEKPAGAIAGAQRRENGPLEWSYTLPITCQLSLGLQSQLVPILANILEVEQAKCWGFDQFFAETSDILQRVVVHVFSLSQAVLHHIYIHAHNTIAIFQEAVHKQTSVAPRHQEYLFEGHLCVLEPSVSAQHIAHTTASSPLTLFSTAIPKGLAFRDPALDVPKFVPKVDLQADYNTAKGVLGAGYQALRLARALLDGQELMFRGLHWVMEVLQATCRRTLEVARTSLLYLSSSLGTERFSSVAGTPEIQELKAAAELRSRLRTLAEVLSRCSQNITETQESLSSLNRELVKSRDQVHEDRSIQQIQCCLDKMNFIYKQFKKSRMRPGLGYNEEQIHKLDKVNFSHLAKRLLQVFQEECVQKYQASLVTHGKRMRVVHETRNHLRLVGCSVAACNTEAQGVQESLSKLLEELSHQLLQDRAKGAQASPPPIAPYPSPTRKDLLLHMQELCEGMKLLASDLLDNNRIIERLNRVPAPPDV

Sequence of hJAK2 (O60674 whole entry): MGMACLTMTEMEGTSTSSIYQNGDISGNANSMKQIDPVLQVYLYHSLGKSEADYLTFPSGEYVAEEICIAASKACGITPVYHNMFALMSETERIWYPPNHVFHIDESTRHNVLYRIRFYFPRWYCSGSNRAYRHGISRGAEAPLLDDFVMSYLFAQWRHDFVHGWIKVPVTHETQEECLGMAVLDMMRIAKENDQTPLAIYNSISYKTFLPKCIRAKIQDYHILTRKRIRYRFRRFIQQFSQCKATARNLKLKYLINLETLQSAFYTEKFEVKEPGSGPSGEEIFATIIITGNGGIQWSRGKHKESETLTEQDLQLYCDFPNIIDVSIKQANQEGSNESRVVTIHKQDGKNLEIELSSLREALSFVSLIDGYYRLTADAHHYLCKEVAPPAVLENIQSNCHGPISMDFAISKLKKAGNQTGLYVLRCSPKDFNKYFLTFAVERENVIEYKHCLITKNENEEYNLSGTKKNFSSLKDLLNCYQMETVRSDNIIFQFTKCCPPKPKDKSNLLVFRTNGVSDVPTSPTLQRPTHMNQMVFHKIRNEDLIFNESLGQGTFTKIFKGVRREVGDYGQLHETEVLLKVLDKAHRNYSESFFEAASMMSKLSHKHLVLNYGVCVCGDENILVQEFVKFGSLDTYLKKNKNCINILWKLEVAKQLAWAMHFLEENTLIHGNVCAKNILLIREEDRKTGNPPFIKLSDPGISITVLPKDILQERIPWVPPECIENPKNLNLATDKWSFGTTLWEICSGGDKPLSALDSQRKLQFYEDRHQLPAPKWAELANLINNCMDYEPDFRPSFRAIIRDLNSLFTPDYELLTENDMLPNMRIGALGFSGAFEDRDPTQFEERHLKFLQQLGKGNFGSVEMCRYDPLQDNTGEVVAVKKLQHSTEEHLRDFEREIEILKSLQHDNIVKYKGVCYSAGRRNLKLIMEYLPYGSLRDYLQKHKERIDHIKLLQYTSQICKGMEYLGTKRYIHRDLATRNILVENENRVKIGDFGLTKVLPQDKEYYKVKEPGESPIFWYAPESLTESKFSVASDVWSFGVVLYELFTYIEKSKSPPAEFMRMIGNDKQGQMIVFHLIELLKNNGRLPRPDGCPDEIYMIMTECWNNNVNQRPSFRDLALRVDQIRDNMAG
Sequence of TBK1 (Q9UHD2 whole entry): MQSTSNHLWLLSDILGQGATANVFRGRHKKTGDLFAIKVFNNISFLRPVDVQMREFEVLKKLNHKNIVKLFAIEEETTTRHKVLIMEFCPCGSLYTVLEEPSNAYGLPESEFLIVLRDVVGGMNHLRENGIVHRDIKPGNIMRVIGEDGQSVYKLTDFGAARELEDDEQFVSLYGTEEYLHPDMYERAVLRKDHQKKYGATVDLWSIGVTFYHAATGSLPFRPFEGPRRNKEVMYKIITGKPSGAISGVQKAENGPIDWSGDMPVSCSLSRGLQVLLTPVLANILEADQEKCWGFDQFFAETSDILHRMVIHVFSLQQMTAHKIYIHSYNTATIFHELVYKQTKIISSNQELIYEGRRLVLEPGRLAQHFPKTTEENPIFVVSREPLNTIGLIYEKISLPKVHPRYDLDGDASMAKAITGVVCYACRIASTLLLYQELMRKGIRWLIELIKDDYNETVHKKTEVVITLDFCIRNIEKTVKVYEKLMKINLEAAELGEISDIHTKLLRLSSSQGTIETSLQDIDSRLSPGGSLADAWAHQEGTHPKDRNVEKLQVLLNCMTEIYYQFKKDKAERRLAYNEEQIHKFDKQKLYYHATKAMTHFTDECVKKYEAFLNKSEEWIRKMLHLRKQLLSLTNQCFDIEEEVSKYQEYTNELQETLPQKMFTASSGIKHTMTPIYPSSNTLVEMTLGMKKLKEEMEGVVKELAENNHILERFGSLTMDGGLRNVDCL

In the case of `N#Cc1cc(-c2ncnc(Nc3ccc(N4CCOCC4)cc3)n2)ccc1N1CCCC1` [Example 53, 5-(4-((4-morpholinophenyl)amino)-1,3,5-triazin-2-yl)-2-(pyrrolidin-1-yl)benzonitrile], the IC50 (hJAK2) is reported as 261 nM, the IC50 (TBK1) is reported as 5 nM and the IC50 (IKKε) is reported as 18 nM.

Work on `N#Cc1cc(-c2ncnc(Nc3ccc(C4CCN(C5COC5)CC4)cc3)n2)ccc1OC1CCOCC1` [Example 54, 5-(4-((4-(1-(oxetan-3-yl)piperidin-4-yl)phenyl)amino)-1,3,5-triazin-2-yl)-2-((tetrahydro-2H-pyran-4-yl)oxy)benzonitrile] yielded an IC50 (hJAK2) greater than 1000 nM, an IC50 (TBK1) of 2 nM and an IC50 (IKKε) of 4 nM.

In the case of `N#Cc1cc(-c2ncnc(Nc3ccc(C(N)=O)cc3)n2)ccc1OC1CCOCC1` [Example 55], the IC50 (hJAK2) is reported as greater than 1000 nM, the IC50 (TBK1) is reported as 2 nM and the IC50 (IKKε) is reported as 5 nM.

`N#Cc1cc(-c2ncnc(Nc3ccc(C4CCN(C5COC5)CC4)cc3)n2)ccc1OC1CCN(C(=O)CO)CC1` [Example 56, 2-((1-(2-hydroxyacetyl)piperidin-4-yl)oxy)-5-(4-((4-(1-(oxetan-3-yl)piperidin-4-yl)phenyl)amino)-1,3,5-triazin-2-yl)benzonitrile] was tested, and the IC50 (hJAK2) was greater than 1000 nM, the IC50 (TBK1) was 2 nM and the IC50 (IKKε) was 3 nM.

`CS(=O)(=O)c1ccc(Nc2ncnc(-c3ccc(OC4CCN(C(=O)CO)CC4)c(C#N)c3)n2)cc1` [Example 57, 2-((1-(2-hydroxyacetyl)piperidin-4-yl)oxy)-5-(4-((4-(methylsulfonyl)phenyl)amino)-1,3,5-triazin-2-yl)benzonitrile] showed an IC50 (hJAK2) greater than 1000 nM, an IC50 (TBK1) of 5 nM and an IC50 (IKKε) of 8 nM.

Compound `N#Cc1cc(-c2ncnc(Nc3ccc(N4CCN(C5COC5)CC4)cc3)n2)ccc1OCC1CC1` [Example 58, 2-(cyclopropylmethoxy)-5-(4-((4-(4-(oxetan-3-yl)piperazin-1-yl)phenyl)amino)-1,3,5-triazin-2-yl)benzonitrile] has an IC50 (hJAK2) of 455 nM, an IC50 (TBK1) of 2 nM and an IC50 (IKKε) of 4 nM.

Work on `Cn1ccc(Nc2ncnc(-c3ccc(OC4CCOCC4)c(C#N)c3)n2)n1` [Example 59, 5-(4-((1-methyl-1H-pyrazol-3-yl)amino)-1,3,5-triazin-2-yl)-2-((tetrahydro-2H-pyran-4-yl)oxy)benzonitrile] yielded an IC50 (hJAK2) greater than 1000 nM, an IC50 (TBK1) of 55 nM and an IC50 (IKKε) of 83 nM.

Work on `N#Cc1cc(-c2ncnc(Nc3ccc(N4CCN(C5COC5)CC4)cc3)n2)ccc1OC1CCC(F)(F)CC1` [Example 60, 2-((4,4-difluorocyclohexyl)oxy)-5-(4-((4-(4-(oxetan-3-yl)piperazin-1-yl)phenyl)amino)-1,3,5-triazin-2-yl)benzonitrile] yielded an IC50 (hJAK2) of 655 nM, an IC50 (TBK1) of 3 nM and an IC50 (IKKε) of 7 nM.

`CN1CCN(c2cccc(Nc3ncnc(-c4ccc(OC5CCOCC5)c(C#N)c4)n3)c2)CC1` [Example 62, 5-(4-((3-(4-methylpiperazin-1-yl)phenyl)amino)-1,3,5-triazin-2-yl)-2-((tetrahydro-2H-pyran-4-yl)oxy)benzonitrile] gave an IC50 (hJAK2) greater than 1000 nM, an IC50 (TBK1) of 5 nM and an IC50 (IKKε) of 3 nM.

With `N#Cc1cc(-c2ncnc(Nc3cccc(N4CCOCC4)c3)n2)ccc1OC1CCOCC1` [Example 63, 5-(4-((3-morpholinophenyl)amino)-1,3,5-triazin-2-yl)-2-((tetrahydro-2H-pyran-4-yl)oxy)benzonitrile] the IC50 (hJAK2) was 938 nM, the IC50 (TBK1) was 4 nM and the IC50 (IKKε) was 8 nM.

For `N#Cc1cc(-c2ncnc(Nc3ccc(C4CCN(CC(F)F)CC4)cc3)n2)ccc1OC1CCOCC1` [Example 65, 5-(4-((4-(1-(2,2-difluoroethyl)piperidin-4-yl)phenyl)amino)-1,3,5-triazin-2-yl)-2-((tetrahydro-2H-pyran-4-yl)oxy)benzonitrile], the IC50 (hJAK2) was greater than 1000 nM, the IC50 (TBK1) was 4 nM and the IC50 (IKKε) was 11 nM.

`CS(=O)(=O)N1CCN(c2ccc(Nc3ncnc(-c4ccc(OC5CCOCC5)c(C#N)c4)n3)cc2)CC1` [Example 66, 5-(4-((4-(4-(methylsulfonyl)piperazin-1-yl)phenyl)amino)-1,3,5-triazin-2-yl)-2-((tetrahydro-2H-pyran-4-yl)oxy)benzonitrile] was tested, and the IC50 (hJAK2) was 345 nM, the IC50 (TBK1) was 2 nM and the IC50 (IKKε) was 5 nM.

Compound `N#Cc1cc(-c2ncnc(Nc3ccc(N4CCN(C5COC5)CC4)cc3)n2)ccc1OC1CCOCC1` [Example 67, 5-(4-((4-(4-(oxetan-3-yl)piperazin-1-yl)phenyl)amino)-1,3,5-triazin-2-yl)-2-((tetrahydro-2H-pyran-4-yl)oxy)benzonitrile] has an IC50 (hJAK2) of 802 nM, an IC50 (TBK1) of 2 nM and an IC50 (IKKε) of 6 nM.

With `N#Cc1cc(-c2ncnc(Nc3ccc(C(=O)C(F)(F)F)cc3)n2)ccc1OC1CCOCC1` [Example 68, 2-((tetrahydro-2H-pyran-4-yl)oxy)-5-(4-((4-(2,2,2-trifluoroacetyl)phenyl)amino)-1,3,5-triazin-2-yl)benzonitrile] the IC50 (hJAK2) was 415 nM, the IC50 (TBK1) was 2 nM and the IC50 (IKKε) was 11 nM.

For `N#Cc1cc(-c2ncnc(Nc3cccc(N4CCN(C5COC5)CC4)c3)n2)ccc1OC1CCOCC1` [Example 69, 5-(4-((3-(4-(oxetan-3-yl)piperazin-1-yl)phenyl)amino)-1,3,5-triazin-2-yl)-2-((tetrahydro-2H-pyran-4-yl)oxy)benzonitrile], the IC50 (hJAK2) was greater than 1000 nM, the IC50 (TBK1) was 6 nM and the IC50 (IKKε) was 4 nM.

`N#Cc1cc(-c2ncnc(Nc3ccc(N4CCN(C5COC5)CC4)cc3)n2)ccc1OC1CCN(C(=O)C2(O)CC2)CC1` [Example 70, 2-((1-(1-hydroxycyclopropanecarbonyl)piperidin-4-yl)oxy)-5-(4-((4-(4-(oxetan-3-yl)piperazin-1-yl)phenyl)amino)-1,3,5-triazin-2-yl)benzonitrile] gave an IC50 (hJAK2) of 918 nM, an IC50 (TBK1) of 28 nM and an IC50 (IKKε) of 70 nM.

Compound `COc1cc(Nc2ncnc(-c3ccc(OC4CCOCC4)c(C#N)c3)n2)ccc1C(=O)N1CCN(C2COC2)CC1` [Example 71, 5-(4-((3-methoxy-4-(4-(oxetan-3-yl)piperazine-1-carbonyl)phenyl)amino)-1,3,5-triazin-2-yl)-2-((tetrahydro-2H-pyran-4-yl)oxy)benzonitrile] has an IC50 (hJAK2) greater than 1000 nM, an IC50 (TBK1) of 2 nM and an IC50 (IKKε) of 10 nM.

`COc1ccc(Nc2ncnc(-c3ccc(OC4CCOCC4)c(C#N)c3)n2)cc1` [Example 72, 5-(4-((4-methoxyphenyl)amino)-1,3,5-triazin-2-yl)-2-((tetrahydro-2H-pyran-4-yl)oxy)benzonitrile] gave an IC50 (hJAK2) greater than 1000 nM, an IC50 (TBK1) of 5 nM and an IC50 (IKKε) of 21 nM.

Compound `Cn1nccc1Nc1ncnc(-c2ccc(OC3CCOCC3)c(C#N)c2)n1` [Example 73, 5-(4-((1-methyl-1H-pyrazol-5-yl)amino)-1,3,5-triazin-2-yl)-2-((tetrahydro-2H-pyran-4-yl)oxy)benzonitrile] has an IC50 (hJAK2) greater than 1000 nM, an IC50 (TBK1) of 90 nM and an IC50 (IKKε) of 202 nM.

In the case of `N#Cc1cc(-c2ncnc(Nc3cc(F)c(N4CCN(C5COC5)CC4)c(F)c3)n2)ccc1OC1CCOCC1` [Example 74, 5-(4-((3,5-difluoro-4-(4-(oxetan-3-yl)piperazin-1-yl)phenyl)amino)-1,3,5-triazin-2-yl)-2-((tetrahydro-2H-pyran-4-yl)oxy)benzonitrile], the IC50 (hJAK2) is reported as greater than 1000 nM, the IC50 (TBK1) is reported as 3 nM and the IC50 (IKKε) is reported as 12 nM.

Compound `N#Cc1cc(-c2ncnc(Nc3ccc(C(=O)NC4COC4)cc3)n2)ccc1OC1CCOCC1` [Example 75, 4-((4-(3-cyano-4-((tetrahydro-2H-pyran-4-yl)oxy)phenyl)-1,3,5-triazin-2-yl)amino)-N-(oxetan-3-yl)benzamide] has an IC50 (hJAK2) of 899 nM, an IC50 (TBK1) of 3 nM and an IC50 (IKKε) of 12 nM.
